Patent US20130053357A1, “SKIN IRRITATION SUPPRESSANT AND TRANSDERMAL PREPARATION” (HISAMITSU PHARMACEUTICAL CO., INC., priority 2010, published 2013)
Counter-ions that a name gives are not always drawn.

What was measured:
[1] = test system: human three-dimensional culture epidermal model (LabCyte EPI-MODEL); test: Suppression by cholesterol of skin irritation mediator production induced by drugs in a human epidermal cell (Experiment 2); format: cell-based
Experimental: (§1) A human three-dimensional epidermal culture model obtained by multilayer-culturing a human normal epidermal cell (LabCyte EPI-MODEL, manufactured by Japan Tissue Engineering Co., Ltd.) was used. LabCyte is a cultured skin cultured in a transwell. For the experiment, LabCyte was used with the transwell.
(§2) The experiment was conducted as below. First, LabCyte was put into a 24-well assay plate. Then, 1 ml of assay medium (Japan Tissue Engineering Co., Ltd.) was added so that it was brought into contact with a bottom surface of the cultured skin in each well of the 24-well assay plate, and was pre-cultured in an incubator with 5% of carbon dioxide concentration at 37° C. for 1 hour.
(§3) The test solutions of each group were added to the cells, the culture solutions incubated for 48 hours were collected, and a production amount of each skin irritation mediator was measured. The skin irritation mediator was measured by using a commercially available ELISA kit (manufactured by R&D Systems, Inc.). A relative production amount of the skin irritation mediator in each test substance was calculated as below, when the production amount of the skin irritation mediator in the PMA Only Group was set to 100.
Cholesterol was used as a test substance. The drugs shown in Table 2 were used as the cutaneous irritants.
Tests were conducted by the following group composition. • Drug Only Group: A group with addition of only the drug dispersed in a vehicle, as a test solution. Concentrations of the drugs are shown in Table 2. • Drug Plus Cholesterol Group: A group with addition of the drug and 1% by mass of cholesterol which were dispersed in a vehicle, as a test solution.
The experiment was conducted while other conditions were set in the same manner as in Experiment 1.

[2] = test system: human three-dimensional culture epidermal model (LabCyte EPI-MODEL); test: Production of skin irritation mediators induced by PMA in human three-dimensional epidermal culture model (Experiment 1); format: cell-based; conditions: for Effect on skin irritation mediator production by PMA (in words): summary of Table 1; for Relative Production Amount of Skin Irritation Mediator when Production Amount in PMA Only Group is Set to 100: IL-1α / Relative Production Amount of Skin Irritation Mediator when Production Amount in PMA Only Group is Set to 100: IL-6 / Relative Production Amount of Skin Irritation Mediator when Production Amount in PMA Only Group is Set to 100: IL-8 / Relative Production Amount of Skin Irritation Mediator when Production Amount in PMA Only Group is Set to 100: PGE2: 48 hours
Description: Changes in production amounts of skin irritation mediators by test substances were examined when cutaneous irritants were caused to act on a human three-dimensional culture epidermal model.
as §1
As test substances, there were used cholesterol (manufactured by Wako Pure Chemical Industries, Ltd.), β-sitosterol (manufactured by TAMA BIOCHEMICAL CO., LTD.), α-spinasterol (manufactured by ChromaDex, Inc.), ergosterol (manufactured by Wako Pure Chemical Industries, Ltd.), campesterol (manufactured by TAMA BIOCHEMICAL CO., LTD.), glycyrrhizin (manufactured by Wako Pure Chemical Industries, Ltd.), glycyrrhetinic acid (manufactured by Wako Pure Chemical Industries, Ltd.), ginsenoside (manufactured by Wako Pure Chemical Industries, Ltd.), squalene (manufactured by Wako Pure Chemical Industries, Ltd.), squalane (manufactured by Tokyo Chemical Industry Co., Ltd.) and lanosterol (manufactured by ChromaDex, Inc.), which are candidates of a skin irritation suppressant.
As skin irritants, Phorbol 12-Myristate 13-Acetate (PMA, manufactured by Wako Pure Chemical Industries, Ltd.) was used. In addition, as vehicle, olive oil (manufactured by Wako Pure Chemical Industries, Ltd.) was used.
Experiments were conducted by the following group composition. • PMA Only Group: A group with addition of only 0.00001 mol of PMA dispersed in a vehicle, as a test solution. • Test Substance Group: A group with addition of 0.00001 mol of PMA and the test substance which were dispersed in a vehicle, as a test solution.
as §2
Next, a cell survival rate was measured by the MTT method after causing the test solutions of each group to act. Specifically, 50 μL of the test solution of each group was added to the surface of the LabCyte after preculture, was cultured in the incubator with 5% of carbon dioxide concentration at 37° C. for 48 hours, then was transferred to the assay medium comprising 0.5 mg/ml of MTT reagent, and was cultured in the incubator with 5% of carbon oxide level at 37° C. for 3 hours. Then, LabCyte was immersed in 0.3 ml of an isopropanol solution, and the produced blue-purple formazan was extracted for 2 hours. After extraction, an absorbance at 570 nm was measured by a 96 microplate reader. The cell survival rate was calculated as below.
Cell survival rate (%)=(absorbance of Test Substance Group)/(absorbance of PMA Only Group)×100
Subsequently, a production amount of the skin irritation mediator at a test substance concentration with 80% or more of cell survival rate was measured. As skin irritation mediators, PGE2, IL-1α, IL-6, IL-8 were measured.
as §3
Relative production amount=(production amount of the mediator in Test Substance Group)/(production amount of the mediator in PMA Only Group)×100

[3] = Drug Plus Cholesterol Group: drug 1 × 10^−3 M plus 1% by mass of cholesterol
[4] = Drug Plus Cholesterol Group: drug 8 × 10^−5 M plus 1% by mass of cholesterol
[5] = test substance 0.1 mass % with PMA in olive oil
[6] = test substance 1 mass % with PMA in olive oil

Cc1nc2n(c(=O)c1CCN1CCC(c3noc4cc(F)ccc34)CC1)CCCC2 [Risperidone]
Relative Production Amount of Skin Irritation Mediator when Production Amount in Drug Only Group is Set to 100: IL-1α [1, 3]: 14 | Relative Production Amount of Skin Irritation Mediator when Production Amount in Drug Only Group is Set to 100: IL-6 [1, 3]: 77 | Relative Production Amount of Skin Irritation Mediator when Production Amount in Drug Only Group is Set to 100: IL-8 [1, 3]: 38 | Relative Production Amount of Skin Irritation Mediator when Production Amount in Drug Only Group is Set to 100: PGE2 [1, 3]: 80

Cc1ccc(O)c([C@H](CCN(C(C)C)C(C)C)c2ccccc2)c1 [Tolterodine Tartrate]
Relative Production Amount of Skin Irritation Mediator when Production Amount in Drug Only Group is Set to 100: IL-1α [1, 4]: 48 | Relative Production Amount of Skin Irritation Mediator when Production Amount in Drug Only Group is Set to 100: IL-6 [1, 4]: 92 | Relative Production Amount of Skin Irritation Mediator when Production Amount in Drug Only Group is Set to 100: IL-8 [1, 4]: 66 | Relative Production Amount of Skin Irritation Mediator when Production Amount in Drug Only Group is Set to 100: PGE2 [1, 4]: 58

CC[C@H](/C=C/[C@@H](C)[C@H]1CC[C@H]2C3=CC[C@H]4C[C@@H](O)CC[C@]4(C)[C@H]3CC[C@]12C)C(C)C [α-spinasterol]
Effect on skin irritation mediator production by PMA (in words) [2]: exhibited effects of suppressing the skin irritation mediator production by PMA | Relative Production Amount of Skin Irritation Mediator when Production Amount in PMA Only Group is Set to 100: IL-1α [2, 5]: 38 | Relative Production Amount of Skin Irritation Mediator when Production Amount in PMA Only Group is Set to 100: IL-6 [2, 5]: 109 | Relative Production Amount of Skin Irritation Mediator when Production Amount in PMA Only Group is Set to 100: IL-8 [2, 5]: 72 | Relative Production Amount of Skin Irritation Mediator when Production Amount in PMA Only Group is Set to 100: PGE2 [2, 5]: 43

CC[C@H](CC[C@@H](C)[C@H]1CC[C@H]2[C@@H]3CC=C4C[C@@H](O)CC[C@]4(C)[C@H]3CC[C@]12C)C(C)C [β-sitosterol]
Effect on skin irritation mediator production by PMA (in words) [2]: exhibited effects of suppressing the skin irritation mediator production by PMA | Relative Production Amount of Skin Irritation Mediator when Production Amount in PMA Only Group is Set to 100: IL-1α [2, 6]: 101 | Relative Production Amount of Skin Irritation Mediator when Production Amount in PMA Only Group is Set to 100: IL-6 [2, 6]: 100 | Relative Production Amount of Skin Irritation Mediator when Production Amount in PMA Only Group is Set to 100: IL-8 [2, 6]: 34 | Relative Production Amount of Skin Irritation Mediator when Production Amount in PMA Only Group is Set to 100: PGE2 [2, 6]: 44

ginsenoside
Effect on skin irritation mediator production by PMA (in words) [2]: exhibited effects of suppressing the skin irritation mediator production by PMA | Relative Production Amount of Skin Irritation Mediator when Production Amount in PMA Only Group is Set to 100: IL-1α [2, 5]: 77 | Relative Production Amount of Skin Irritation Mediator when Production Amount in PMA Only Group is Set to 100: IL-6 [2, 5]: 70 | Relative Production Amount of Skin Irritation Mediator when Production Amount in PMA Only Group is Set to 100: IL-8 [2, 5]: 90 | Relative Production Amount of Skin Irritation Mediator when Production Amount in PMA Only Group is Set to 100: PGE2 [2, 5]: 121
